Assay results as given in patent US20150038527A1, “FUROPYRIDINE DERIVATIVES” (Merck Patent GmbH, priority 2012, published 2015).
Values belong to the molecule of their own block, whether it stands above or below them.

Columns and labels:
SYK = molecular target: T1, SYK (Homo sapiens, UniProt P43405); test: SYK Flash Plate Assay (enzyme assay); format: biochemical
T1 construct: 2.5 nM SYK, 400 nM Biotin-Aha-Aha-KEDPDYEWPSAKK and 10 μM ATP

RA = RA Phase II studies in humans; cited from earlier work
murine model of RA = details: cited from earlier work

IC50 (SYK): < 100 nM
SMILES: COc1ccc(-c2noc(=O)[nH]2)cc1-c1cc2nccc(-c3cc[nH]n3)c2o1 [Compound A105, 3-{4-methoxy-3-[7-(1H-pyrazol-3-yl)-furo[3,2-b]pyridin-2-yl]-phenyl}-4H-[1,2,4]oxadiazol-5-one]

IC50 (SYK): < 100 nM
SMILES: COc1ccc(-c2noc(CN)n2)cc1-c1cc2nccc(-c3c(OC)cccc3OC)c2o1 [Compound A106, C-(3-{3-[7-(2,6-dimethoxy-phenyl)-furo[3,2-b]pyridin-2-yl]-4-methoxy-phenyl}-[1,2,4]oxadiazol-5-yl)-methylamine]

IC50 (SYK): 100 to 300 nM
SMILES: COc1cccc(OC)c1-c1ccnc2cc(-c3cc(C(N)=O)ccc3N)oc12 [Compound A107, 4-amino-3-[7-(2,6-dimethoxy-phenyl)-furo[3,2-b]pyridin-2-yl]-benzamide]

IC50 (SYK): 100 to 300 nM
SMILES: COc1cc(-c2cc3nccc(-c4nnc(CCCN)[nH]4)c3o2)cc(OC)c1OC [Compound A108, 3-{5-[2-(3,4,5-trimethoxy-phenyl)-furo[3,2-b]pyridin-7-yl]-4H-[1,2,4]triazol-3-yl}-propylamine]

SMILES: COc1cc(Nc2ncc(F)c(Nc3ccc4c(n3)NC(=O)C(C)(C)O4)n2)cc(OC)c1OC [Compound R406]
efficacy (ACR scores) (RA): efficacy (ACR scores improvement)
tolerability (RA): good tolerability
bone erosion (murine model of RA): significantly reduced
clinical scores (murine model of RA): significant improvement of clinical scores
serum cytokine concentrations (murine model of RA): significantly reduced serum cytokine concentrations
